According to US7169772B2, “4,4-difluoro-1,2,3,4-tetrahydro-5H-1-benzazepine derivatives or salts thereof” (Astellas Pharma Inc., priority 2001, dated 2007):

Tests used:
human V2 receptor = molecular target: T1, human V2 receptor (Homo sapiens, UniProt P30518); assay: V2 receptor binding assay; settings: human V2 expression CHO cell membrane, [3H]-Vasopressin 0.5 nM, 25° C., 60 minutes; read-out: Ki (affinity for V2 receptor)
T1 construct: expressed in transfected cells; host or cells: CHO cells
T1 sequence (P30518 whole entry): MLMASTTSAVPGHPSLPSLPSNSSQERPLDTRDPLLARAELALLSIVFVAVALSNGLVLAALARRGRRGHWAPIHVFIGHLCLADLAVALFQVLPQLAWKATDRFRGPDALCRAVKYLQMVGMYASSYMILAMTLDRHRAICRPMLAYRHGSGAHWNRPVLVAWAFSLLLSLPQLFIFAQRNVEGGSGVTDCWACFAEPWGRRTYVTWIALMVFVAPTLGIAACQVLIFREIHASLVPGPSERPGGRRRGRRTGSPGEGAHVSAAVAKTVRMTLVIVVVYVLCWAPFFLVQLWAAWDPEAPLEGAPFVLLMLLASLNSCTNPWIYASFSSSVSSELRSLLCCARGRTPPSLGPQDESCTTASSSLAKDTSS
Description: (1) V2 Receptor Binding Assay
A human V2 expression CHO cell membrane sample was prepared in accordance with a method of Tahara, et al. (British Journal of Pharmacology. Vol 125, p. 1463–1470, 1998). 2 μg of the membrane sample were incubated in a total of 250 μl of 50 mM tris-chloric acid buffer solution (pH=7.4) containing 10 mM MgCl2 and 0.1% bovine serum albumin (BSA), together with [^3H]-Arginine-Vasopressin (hereinafter referred to as ‘[^3H]-Vasopressin’) (0.5 nM, Specific activity=75 Ci mmol) and a test compound (10^−10˜10^−5 M) at 25° C. for 60 minutes. Then, free [^3H]-Vasopressin and receptor binding [^3H]-Vasopressin were separated using a cell harvester, and the receptor binding [^3H]-Vasopressin was adsorbed on a Unifilter Plate GF/B glass filter, sufficiently dried, and then mixed with a microplate scintillation cocktail. The amount of receptor binding [^3H]-Vasopressin was measured using a top count, and inhibition rate was calculated by the following equation. Inhibition Rate(%)=100−(C1−B1)/(C0−B1)×100 • C1: the amount of [^3H]-Vasopressin bound to the membrane sample, when the receptor membrane sample is treated in the coexistence of a test compound of known concentration and [^3H]-Vasopressin • C0: the amount of [^3H]-Vasopressin bound to the membrane sample, when the receptor membrane sample is treated with [^3H]-Vasopressin, in the absence of a test compound • B1: the amount of [^3H]-Vasopressin bound to the membrane sample, when the receptor membrane sample is treated in the coexistence of an excess amount of Vasopressin (10^−6 M) and [^3H]-Vasopressin
Dissociation Coefficient (Ki)=IC50/(1+[L]/Kd) • [L]: the concentration of [^3H]-Vasopressin • Kd: dissociation coefficient of [3H]-Vasopressin for the receptor, calculated from saturation binding assay

Wistar male rats = assay: Antidiuresis assay (oral administration); assay type: in vivo; settings: Rattus norvegicus, read-out: ED50 (amount required for decreasing urinary excretion rate by 50%), 30 ml/kg water load after 15 minutes, urine until 4 hours after water load
Description: (3) Antidiuresis Assay (Oral Administration)
For the assay, Wistar male rats (10˜12 weeks of age) were employed. The test compound was orally administrated, and after 15 minutes, 30 ml/kg of distilled water were orally administrated (water load). Until 4 hours after the water load, urine was collected in a metabolism cage, and the amount of urine when the water load was set to 100% was calculated as the urinary excretion rate. […]

CYP2C9 = CYP2C9 (Homo sapiens, UniProt P11712); assay: Cytochrome P450 (2C9) enzyme inhibition effects; assay type: biochemical; settings: substrate 7-methoxy-4-(trifluoromethyl)coumarin, 37° C., 45 minutes
Chain of CYP2C9 (P11712 whole entry): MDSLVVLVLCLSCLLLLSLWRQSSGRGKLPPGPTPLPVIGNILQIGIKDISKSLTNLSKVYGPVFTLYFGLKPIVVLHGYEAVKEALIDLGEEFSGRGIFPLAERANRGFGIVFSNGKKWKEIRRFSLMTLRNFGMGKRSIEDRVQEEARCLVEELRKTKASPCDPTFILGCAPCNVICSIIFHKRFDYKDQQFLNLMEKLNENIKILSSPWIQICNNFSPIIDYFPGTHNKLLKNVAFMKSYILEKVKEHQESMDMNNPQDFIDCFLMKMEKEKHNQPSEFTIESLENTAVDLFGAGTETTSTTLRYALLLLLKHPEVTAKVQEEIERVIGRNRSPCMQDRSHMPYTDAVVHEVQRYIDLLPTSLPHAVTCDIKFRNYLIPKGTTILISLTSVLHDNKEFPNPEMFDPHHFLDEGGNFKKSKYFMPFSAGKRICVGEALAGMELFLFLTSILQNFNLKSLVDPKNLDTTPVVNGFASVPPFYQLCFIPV
Description: (§1) C0: fluorescence intensity in the presence of an enzyme and a substrate, in the absence of a test compound • B1: fluorescence intensity of a blank well (5) Cytochrome P450 (2C9) Enzyme Inhibition Effects
(§2) The assay was carried out in accordance with a method of Crespi, et al. (Analytical Biochemistry, 248, 188–190, 1997).
A 96 well plate was employed, and 7-methoxy-4-(trifluoromethyl)coumarin (7.5×10^−5 M) as a substrate, a test compound (4.9×10^−8˜5×10^−5M), and an enzyme (10^−8 M) were incubated in a total of 200 μl of a 200 mM phosphate buffer solution (pH=7.4) comprising 8.2 μM NADP+, 0.41 mM glucose-6-phosphate, 0.41 mM MgCl2, and 0.4 Units/ml glucose-6-phosphate dehydrogenase, at 37° C. for 45 minutes. Then, 0.5 M aqueous solution of 2-amino-2-hydroxymethyl-1,3-propanediol containing 80% acetonitrile was added thereto to stop the reaction, and fluorescence intensity was measured with a fluorescent plate reader (excited wavelength: 409 nm, fluorescent wavelength: 530 nm). […]

CYP3A4 = CYP3A4 (Homo sapiens, UniProt P08684); assay: Cytochrome P450 (3A4) enzyme inhibition assay; assay type: biochemical; settings: substrate 7-benzyloxy-4-(trifluoromethyl)coumarin, 37° C., 30 minutes
Chain of CYP3A4 (P08684 whole entry): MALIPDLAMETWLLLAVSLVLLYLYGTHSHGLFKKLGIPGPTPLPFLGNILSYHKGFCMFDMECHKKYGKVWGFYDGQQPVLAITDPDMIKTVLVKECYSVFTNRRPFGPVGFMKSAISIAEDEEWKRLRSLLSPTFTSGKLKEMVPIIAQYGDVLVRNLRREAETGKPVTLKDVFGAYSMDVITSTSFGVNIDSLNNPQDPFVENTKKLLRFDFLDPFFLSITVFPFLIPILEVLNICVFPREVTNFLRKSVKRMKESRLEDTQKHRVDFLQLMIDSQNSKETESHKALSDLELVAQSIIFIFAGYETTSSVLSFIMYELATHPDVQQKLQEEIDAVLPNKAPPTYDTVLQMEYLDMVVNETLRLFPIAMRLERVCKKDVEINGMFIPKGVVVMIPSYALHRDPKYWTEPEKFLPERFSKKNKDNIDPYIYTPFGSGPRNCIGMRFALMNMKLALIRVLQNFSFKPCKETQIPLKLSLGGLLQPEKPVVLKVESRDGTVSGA
Description: (4) Cytochrome P450 (3A4) Enzyme Inhibition Assay
as §2
A 96 well plate was employed, and 7-benzyloxy-4-(trifluoromethyl)coumarin (5×10^−5 M) as a substrate, a test compound (4.9×10^−8˜5×10^−5 M), and an enzyme (5×10^−9 M) were incubated in a total of 200 μl of a 200 mM phosphate buffer solution (pH=7.4) comprising 8.2 μM NADP+, 0.41 mM glucose-6-phosphate, 0.41 mM MgCl2, and 0.4 Units/ml glucose-6-phosphate dehydrogenase, at 37° C. for 30 minutes. Then, 0.5 M aqueous solution of 2-amino-2-hydroxymethyl-1,3-propanediol containing 80% acetonitrile was added thereto to stop the reaction, and fluorescence intensity was measured with a fluorescent plate reader (excited wavelength: 409 nm, fluorescent wavelength: 530 nm). […] Inhibition Rate (%)=100−(C1−B1)/(C0−B1)×100 • C1: fluorescence intensity in the presence of a known concentration of test compound, enzyme, and a substrate
as §1

Work on `Cc1cccc(NC(=O)/C=C2/c3ccccc3N(C(=O)c3ccc(-n4ccc(C)n4)cc3Cl)CCC2(F)F)c1` [Example 74, (2Z)-2-{1-[2-chloro-4-(3-methyl-1H-pyrazol-1-yl)benzoyl]-4,4-difluoro-1,2,3,4-tetrahydro-5H-1-benzazepin-5-ylidene}-N-(3-methylphenyl)acetamide] yielded a Ki (human V2 receptor) of 5.6 nM.

In the case of `Cc1ccn(-c2ccc(C(=O)N3CCC(F)(F)/C(=C\C(=O)Nc4ccc(C(N)=O)cc4)c4ccccc43)c(Cl)c2)n1` [Example 72, 4-[((2Z)-2-{1-[2-chloro-4-(3-methyl-1H-pyrazol-1-yl)benzoyl]-4,4-difluoro-1,2,3,4-tetrahydro-5H-1-benzazepin-5-ylidene}acetyl)amino]benzamide], the Ki (human V2 receptor) is reported as 3.7 nM.

`Cc1ccn(-c2ccc(C(=O)N3CCC(F)(F)/C(=C\C(=O)Nc4cccc(CO)c4)c4ccccc43)c(Cl)c2)n1` [Example 76, (2Z)-2-{1-[2-chloro-4-(3-methyl-1H-pyrazol-1-yl)benzoyl]-4,4-difluoro-1,2,3,4-tetrahydro-5H-1-benzazepin-5-ylidene}-N-[3-(hydroxymethyl)phenyl]acetamide] was tested, and the ED50 (Wistar male rats) was 0.22 mg/kg and the Ki (human V2 receptor) was 2.2 nM.

`NC(=O)CNC(=O)/C=C1/c2ccccc2N(C(=O)c2ccc(N3CCCC3)cc2Cl)CCC1(F)F` [Example 220, (2Z)-N-(2-amino-2-oxoethyl)-2-[1-(2-chloro-4-pyrrolidin-1-ylbenzoyl)-4,4-difluoro-1,2,3,4-tetrahydro-5H-1-benzazepin-5-ylidene]acetamide] was tested, and the IC50 (CYP2C9) was 11000 nM and the IC50 (CYP3A4) was 10000 nM.

With `CC(C)NC(=O)C[C@H]1CCCN(C(=O)c2ccc(N3CCCC3)cc2Cl)c2ccccc21` [Control, 2-[(5R)-1-(2-chloro-4-pyrrolidin-1-ylbenzoyl)-2,3,4,5-tetrahydro-1H-1-benzazepin-5-yl]-N-isopropyacetamide, reference compound] the IC50 (CYP2C9) was < 91 nM, the Ki (human V2 receptor) was 68 nM and the IC50 (CYP3A4) was < 91 nM.

In the case of `Cc1ccn(-c2ccc(C(=O)N3CCC(F)(F)/C(=C\C(=O)N4CCCC(C(N)=O)C4)c4ccccc43)c(Cl)c2)n1` (stereo not shown) [Example 58, 1-((2Z)-2-{1-[2-chloro-4-(3-methyl-1H-pyrazol-1-yl)benzoyl]-4,4-difluoro-1,2,3,4-tetrahydro-5H-1-benzazepin-5-ylidene}acetyl)piperidine-3-carboxamide], the Ki (human V2 receptor) is reported as 4.8 nM.

Compound `Cc1cccc(CNC(=O)/C=C2/c3ccccc3N(C(=O)c3ccc(-n4ccc(C)n4)cc3Cl)CCC2(F)F)n1` [Example 119, (2Z)-2-{1-[2-chloro-4-(3-methyl 1H-pyrazol-1-yl)benzoyl]-4,4-difluoro-1,2,3,4-tetrahydro-5H-1-benzazepin-5-ylidene}-N-[(6-methylpyridin-2-yl)methyl]acetamide] has a Ki (human V2 receptor) of 5.6 nM.

For `Cc1ccn(-c2ccc(C(=O)N3CCC(F)(F)/C(=C\C(N)=O)c4ccccc43)c(Cl)c2)n1` [Example 8, (2Z)-2-{1-[2-chloro-4-(3-methyl-1H-pyrazol-1-yl)benzoyl]-4,4-difluoro-1,2,3,4-tetrahydro-5H-benzazepine}acetamide], the IC50 (CYP2C9) was 13000 nM and the IC50 (CYP3A4) was > 20000 nM.
